From a melting point compilation (Tetko et al.; mined from patent text by program, amines drawn as free bases though some values may be those of a salt) come the findings set out here.

As usually defined, the melting point is the temperature of the solid-liquid transition. `Cc1cccc2c1N(Cc1ccccn1)C(=O)C(NC(=O)Nc1cccc(-c3nnn[nH]3)c1)N=C2c1ccccc1F` (stereo not given) had a melting point of 174 to 182 °C. The result for `O=C(O)C1=CSC2C(=Cc3ccc4nc5n(c4c3)CCCS5)C(=O)N12` (stereo not given) reads greater than 250 °C. Under `COc1ccc(C2(CCN3CCC(C(O)(c4ccccc4)c4ccccc4)CC3)CCN(C(=O)c3cc(OC)c(OC)c(OC)c3)C2)cc1OC` (stereo not given) stands 95 to 97 °C; under `C#CCC1C(=O)NOc2cc(F)c(NC(=S)N3CCCC=N3)cc21` (stereo not given), 151 to 155 °C. The result for `CC#CCN(c1nc(-c2ccc(OC)cc2Cl)c(C)s1)C(COC)c1ccccc1` (stereo not given) reads 70 °C. Turning to `CCNC(=O)NC1(c2ccc(C(C)C)cc2OC)C(=O)c2ccccc2C1=O`, the melting point lay within 267 to 269 °C. The result for `O=C(CCCOc1cccc(CNC(=O)c2nc3ccccc3c(=O)[nH]2)c1)Nc1nc[nH]n1` reads 189 to 190 °C; that for `O=S(c1ccc(-n2cnnn2)cc1)C(F)F` (stereo not given), 109 to 112 °C.

In turn, `Cn1ncc(C(=O)O)c1C(=O)Nc1ccc2nc(-c3ccccc3)nn2c1` yielded a melting point of 259 °C.

Take `O=C(Oc1ccccc1)N1C=CC(c2c(-c3ccc(F)cc3)nc3n2CCS3)C=C1`: the melting point was 164 to 166 °C. Compound `O=C1C(=Cn2ccnc2)C(c2ccccc2)Oc2ccccc21` (stereo not given) yielded a melting point of 129 to 131 °C. Consider `C=C(c1ccccc1)c1cc2cc(OC)ccc2[nH]1`, for which the melting point fell in the range of 119 to 121 °C. Turning to `CCCCCCCCCCCCCCCCOCCO`, the melting point lay in the range of 42 to 44 °C. As for `CC(=O)OC1CSC(Oc2cnc(-c3ccncc3)c(Cl)c2)C(OC(C)=O)C1OC(C)=O` (stereo not given), the melting point was 153 °C.

As for `CCOC(=O)C1=C(C)NC(CO)=C(C(=O)OCC)C1c1ccccc1C(F)(F)F` (stereo not given), the melting point is 147 to 148 °C. In turn, `COC(=O)N(O)Cc1c(C)n(C(=O)c2ccc(Cl)cc2)c2ccc(OC)cc12` returned a melting point of 113 to 114 °C.

Compound `Cc1ccc(C)n1NC(=O)COc1ccc(C2=NNC(=O)NC2C)cc1Cl` (stereo not given) had a melting point of 189 to 190 °C. The result for `Cc1ccc(-c2ccc(OC3SCC(O)C(O)C3O)cn2)cn1` (stereo not given) reads 228 °C; that for `CC(C)(C)OC(=O)NC1CCN(CC23CC(c4ccccc42)c2ccccc23)CC1`, 155 to 160 °C. The result for `CN1CC(C(Oc2ccccc2N)c2ccccc2)OCC1=O` (stereo not given) reads 167 to 170 °C. The compound `COC(=O)c1ccccc1-c1ccc(CNc2nc(=O)[nH]c3ccccc23)cc1` displayed a melting point of 140 to 160 °C. `O=C(O)c1ccc(C2OC23Cc2ccccc2C3=O)cc1` (stereo not given) showed a melting point of 220 °C. The result for `O=S(=O)(Nc1ccccc1O)c1ccc2ccccc2c1` reads 136 °C; that for `O=C1c2cc(O)ccc2OCC1Cc1ccccn1` (stereo not given), 150 to 151 °C. The result for `CC(COc1ccccc1)OS(C)(=O)=O` (stereo not given) reads 58 °C; that for `N#CCCN1CC2C(C1)C2Nc1ncc2cc(-c3ccccc3Cl)c(=O)n(C3CC3)c2n1` (stereo not given), 150 to 152 °C; that for `Cc1c2n(c3ccccc13)C(=O)C(C(O)c1ncn(C(c3ccccc3)(c3ccccc3)c3ccccc3)c1C)CC2` (stereo not given), 153 to 169 °C. In turn, `COc1ccc(C2CCCC(=O)N2c2ccc(OC)cc2)cc1` (stereo not given) returned a melting point of 108 to 109 °C.

Take `O=C1c2ccccc2-c2c1c1cc3c(cc1c(=O)n2CCCNS(=O)(=O)c1ccccc1)OCO3`: the melting point lay in the range of 225 to 226 °C. Under `CC(C)=CCCC(C)=CCCC(C)=CC=CC(C)=CC(=O)N(C)C` stands 39 to 39.5 °C. Under `CSc1nc2cc(Cl)c(Cl)cc2n1C` stands 110 °C. Under `S=C(N=c1ccn(-c2ccccc2)nc1)Nc1ccccc1` stands 171 to 173 °C. Consider `O=C(O)CCCC1Cc2ccc(Cl)cc2C1=O` (stereo not given), for which the melting point was 141 to 142 °C. The compound `O=C(O)COc1ccc(Cl)c2c(=O)c3ccccc3sc12` registered a melting point of 230 to 232 °C. `Brc1ccc(O[C@H]2CCNC[C@H]2c2ccccc2)cc1` (relative stereo) showed a melting point of 113 to 115 °C.

The compound `CC(C)=CCn1nc(C(=O)c2cccc(O)c2)c2ccccc21` displayed a melting point of 92 to 94 °C. `CCCCCCCCCCCCCCc1ccc(OCC(O)CO)cc1` (stereo not given) showed a melting point of 81.5 to 83.5 °C.

Turning to `CC(C)c1ccc(C(=O)C2=C(O)C(=O)N(c3ccc(O)nn3)C2c2ccc(OC(F)(F)F)cc2)cc1` (stereo not given), the melting point is 255 °C. The compound `CC(=O)Nc1cc2c(cc1[N+](=O)[O-])OC(C)(C)[C@@H](O)[C@@H]2N` (relative stereo) had a melting point of 258 to 261 °C. The result for `C[C@@H](n1cnc2cc(-c3ccc(Cl)cc3)sc2c1=O)[C@](O)(Cn1cncn1)c1ccc(Cl)cc1Cl` reads 132 to 136 °C; that for `O=C(CCl)Nc1ccc2c(c1NC(=O)c1cccc(Cl)c1)C(=O)c1ccccc1C2=O`, 188 to 189 °C; that for `O=C(Nc1ccc(-n2nc(C(F)(F)F)cc2C2CC2)nc1)c1c(Cl)cncc1Cl`, 223 to 225 °C. With `COCCc1nc2c(N)nc3ccccc3c2n1CC(C)(C)CNS(C)(=O)=O`, the melting point is 204 to 206 °C. The result for `C[C@@H](O[Si](C)(C)C(C)(C)C)[C@@H]1C(=O)N[C@@H]1S(=O)(=O)c1ccc([N+](=O)[O-])cc1[N+](=O)[O-]` reads 148 to 149 °C; that for `O=[N+]([O-])c1ccc(Nc2ccc(C(F)(F)C(F)(F)C(F)(F)C(F)(F)C(F)(F)C(F)(F)F)cc2)c([N+](=O)[O-])c1`, 145 to 146 °C; that for `CC(C)(C)c1cc(CNn2ccnc2N2CCOCC2)cc(C(C)(C)C)c1O`, 161 to 163 °C. The result for `CS(=O)(=O)c1ccc(-c2c(C(=O)O)c3cccccc-3c2-c2ccccc2)cc1` reads 168 to 169 °C. As for `NC(=O)c1cc2c3ccccc3[nH]c(=O)n2n1`, the melting point lay within 355 to 358 °C. On to `CCS(=O)(=O)Nc1ccc([N+](=O)[O-])cc1OC1CCCCC1`, for which the melting point lay in the range of 94 to 95 °C. The compound `CCCCOc1ccc(/C=C/c2nc3c([nH]2)c(=O)n(CCC)c(=O)n3CCC)cc1` displayed a melting point of 237 to 239 °C. `COC(=O)c1c(O)c2ccccc2n1-c1ccc(OC)cc1` displayed a melting point of 153 to 155 °C. The result for `CCCOc1c(OC)cc(C(=O)O)cc1[N+](=O)[O-]` reads 121 to 123 °C. The result for `CC(=O)Oc1ccc2c(c1Cl)Sc1ccccc1N2C(C)=O` reads 155 °C.

As for `Cc1cc(Cl)ccc1N=CN(C)SN(Cc1ccccc1)Cc1ccccc1`, the melting point fell in the range of 97 to 99 °C. The result for `CCC1CC(=O)N(Cc2ccc(NC(=O)C(C)C)cc2)N=C1c1ccc(OC)c(OC)c1` (stereo not given) reads 144 °C; that for `CCC(C)(O)CCC1C(C)(OC(C)=O)CCC2C(C)(C)CCCC21C` (stereo not given), 92 to 94 °C; that for `Cc1cc(Cc2ccc(NC(=O)NCCO)cc2)n(C)c1C(=O)c1ccc(Cl)cc1`, 210 °C. `COc1ccc2c(c1)C(=O)c1ccc(OC)cc1C2(Cc1ccnc(F)c1)Cc1ccnc(F)c1` had a melting point of 151 to 152 °C. The result for `CC(C)c1ncc(CN2C(=O)C3(COc4cc5c(cc43)OCO5)c3cccc(C(F)(F)F)c32)s1` (stereo not given) reads 101 to 103 °C; that for `COC(=O)CCC#Cc1cc(Cl)ccc1NS(=O)(=O)c1ccc(-c2ccccc2)cc1`, 93 °C.

`Cc1oc(=O)oc1CS[C@H](C)[C@](O)(Cn1cncn1)c1ccc(F)cc1F` (racemic): the melting point fell in the range of 173 to 174 °C. In turn, `C=CC(=O)N1CC[C@H]2[C@H]1[C@@H](CCC)C(=O)N2S(C)(=O)=O` (relative stereo) gave a melting point of 177 to 181 °C. The compound `CCOC(=O)c1c(-c2ccc(F)cc2)c2nccnc2c(=O)n1C` displayed a melting point of 221 to 222 °C. In turn, `CCC1CCc2c(sc3cc(OCc4ccccc4)ccc3c2=O)C1` (stereo not given) showed a melting point of 94 °C. Under `CC(=O)OC1CCC2(C)C(=CCC3C2CCC2(C)C(C(C)=O)CCC32F)C1` (stereo not given) stands 128 °C; under `Fc1cccc(COc2nnc(-c3ccc4c(c3)CCO4)o2)c1`, 91 to 92 °C. The result for `CC(Oc1ccc(Oc2ncc(Cl)cc2F)cc1)C(=O)NC=C(C#N)C#N` (stereo not given) reads 129 to 131 °C; that for `Cc1ccnc2c1nc(C)n2-c1ccccc1`, 117 to 119 °C; that for `Nc1c(OCC(O)CN2CCC(COc3ccccc3)CC2)cccc1[N+](=O)[O-]` (stereo not given), 117 to 118 °C. The result for `CS(=O)c1ncc2n1-c1ccc(Cl)cc1C(c1ccccc1F)=NC2` (stereo not given) reads 95 to 110 °C; that for `Clc1ccc(CS[C@H]2CO[C@H](c3ccccc3)OC2)cc1`, 95 to 99 °C; that for `CC(=O)Oc1ccccc1-c1ccc(Cl)nn1`, 131 to 134 °C. As for `COc1ccc(-c2noc3c2C(c2ccc(OC)c(O)c2)C2=C(COC2=O)N3)cc1` (stereo not given), the melting point was 219 to 221 °C. The result for `CCCc1nc(C)n2nc(N)nc2c1Cc1ccc(-c2ccccc2C#N)cc1` reads 150 °C; that for `CC1=NN(C(=O)c2ccccc2Cl)C2(O)CCCC12` (stereo not given), 147 to 150 °C.

Consider `CNC(=O)NS(=O)(=O)c1ccccc1OC(Cl)=CCl`, for which the melting point lay within 225 to 226 °C. For the compound `CC1(C)CON(Cc2ccc(N3C(=O)c4ccccc4C3=O)cc2Cl)C1=O`, the melting point was in the range of 141 to 145 °C. For the compound `CC1(C)NCCc2c1oc1cc(I)ccc21`, the melting point is 97 to 98 °C. In turn, `OCc1ccc2oc(-c3cccs3)nc2c1` gave a melting point of 158 to 159 °C. Under `OC(Cc1ccccc1Cl)(Cn1cncn1)C1(Cl)CC1` (stereo not given) stands 107 °C; under `CNc1ncccc1C(=O)Nc1ccc2c(c1)-c1c(c(C(N)=O)nn1-c1ccc3c(c1)OCO3)CC2`, 273 to 275 °C. The compound `CCN(CC)C1=C2N=c3cc(Cl)ccc3=C2Oc2ccccc2N1Cc1ccccc1` yielded a melting point of 132 to 134 °C. Consider `COC(=O)C1=C(C)NC(C)=C(NC(=O)Nc2ccccc2)C1c1ccccc1Cl` (stereo not given), for which the melting point was in the range of 203 to 205 °C. Under `Cc1ccc2c(c1)C(=O)c1ccc(C#N)cc1S2(=O)=O` stands 290 °C. Under `COc1ccc2c(n1)C1(CO2)C(=O)N(Cc2cnc(C(C)C)s2)c2cccc(Br)c21` (stereo not given) stands 158 to 160 °C.
